{"source": "paper PMC12251151", "about": "“Understanding Anti-Obesity Potential of Four Porphyrin Compounds by Investigating Pancreatic Lipase Inhibition” (Molecules, 2025)", "origin": "cited, not measured here", "key": {"α-glucosidase": {"target": "α-glucosidase", "design": "method as in PMID 36603279", "conditions": "read-out: IC50 inhibiting α-glucosidase; cited from earlier work"}, "α-amylase": {"target": "α-amylase", "design": "method as in PMID 36603279", "conditions": "read-out: IC50 inhibiting α-amylase; cited from earlier work"}}}
{"smiles": "COc1ccc([C@@H]2CC(=O)c3c(O)cc(O)cc3O2)cc1O", "note": "[Hsp, hesperetin]", "values": [{"measurement": "IC50", "setting": "α-glucosidase", "result": "55.2 ± 0.1", "unit": "µM"}, {"measurement": "IC50", "setting": "α-amylase", "result": "115.6 ± 1.1", "unit": "µM"}]}
